Results from patent US8481547B2, “Substituted benzothiazole and benzoxazole derivatives useful as inhibitors of DPP-1” (Janssen Pharmaceutica NV, priority 2009, dated 2013).
Where a name gives a salt, the structure may show the parent alone.

Target: T1, recombinant human DPP-1 (Cathepsin C) (Homo sapiens, UniProt P53634)
T1 construct: made in house
Assay: DPP-1 Inhibition Assay (In Vitro)
Assay type: biochemical
Conditions: fluorogenic substrate GR-AMC 10 uM, 0.15 nM DPP-1, pH 7.0, room temperature; average value where tested multiple times
Procedure: Test compounds were assessed for DPP-1 (Cathepsin C) inhibitory activity using a fluorogenic substrate, GR-AMC (Glycine-Arginine-amino-4-methylcoumarin, Bachem, 1-1215). The amount of amino-methylcoumarin released is proportional to the DPP-1 activity, and the reaction is monitored kinetically with a Molecular Devices plate reader using black 96-well plates.
All compounds were tested under room temperature conditions. The assay buffer consisted of 50 mM HEPES, pH 7.0, 100 mM NaCl, 2 mM glutathione (GSH), and 0.002% TWEEN 20. GSH and TWEEN 20 were added to the buffer fresh daily. Just prior to use, an in-house preparation of recombinant human DPP-1 (240 μM stock, MW 49.6 kD) was diluted 600-fold in assay buffer containing fresh 2 mM dithiothreitol (DTT) to activate the enzyme, then diluted into assay buffer (without DTT) 133-fold for a DPP-1 working solution of 3 nM. Test compounds were diluted in DMSO for 20× their final assay concentrations.
Additions to a 96-well black Costar 3915 plates were as follows: 90 μL of 11 μM GR-AMC, 5 μL test compound (followed by mixing), and 5 μL 3 nM DPP1 to start the reaction. Fluorescent reactions were monitored kinetically at 360 nm excitation, 440 nm emission on a Molecular Devices Spectramax XPS reader. The Softmax Pro software of the reader determined the initial velocity of the selected data (the first 3-5 minutes of the reaction), and the best linear regression fit of the initial kinetic data. Final assay conditions were 0.15 nM DPP-1, 10 uM GR-AMC, 50 mM HEPES, pH 7.0, 100 mM NaCl, 2 mM GSH, 0.002% TWEEN 20, 1 μM DTT, 5.0% DMSO. Initial velocity rates were plotted vs. test compound concentration by use of a four-parameter logistics equation (nonlinear regression, sigmoidal dose-response (variable slope), with fixed Hill (1.0) using GraphPad Prism® software for determination of DPP-1 IC50. Within-run assay coefficient of variation (CV) was generally <10%; between-run CV<20%.
Representative compounds of the present invention were tested according to the procedure as described above, with results as listed in Table 3, below.

T1 sequence (P53634 25-463): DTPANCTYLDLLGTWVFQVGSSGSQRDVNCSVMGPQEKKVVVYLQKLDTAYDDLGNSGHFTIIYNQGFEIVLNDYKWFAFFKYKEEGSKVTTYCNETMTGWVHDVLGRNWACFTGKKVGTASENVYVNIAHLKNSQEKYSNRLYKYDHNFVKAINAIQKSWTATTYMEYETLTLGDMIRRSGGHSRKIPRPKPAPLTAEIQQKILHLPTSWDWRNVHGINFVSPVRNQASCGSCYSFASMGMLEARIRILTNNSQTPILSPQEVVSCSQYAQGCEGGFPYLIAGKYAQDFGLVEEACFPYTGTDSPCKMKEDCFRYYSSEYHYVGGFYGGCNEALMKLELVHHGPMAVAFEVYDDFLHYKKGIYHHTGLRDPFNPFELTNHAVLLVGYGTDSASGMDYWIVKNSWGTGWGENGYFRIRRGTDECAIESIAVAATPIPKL

First: N[C@@H](Cc1cccs1)C(=O)N1CCN(c2nc3ccc(-c4ccc(F)c(F)c4)cc3s2)CC1 [Compound 11]
Second: N[C@@H](Cc1cccs1)C(=O)N1CCN(c2nc3ccc(-c4ccccc4F)cc3s2)CC1 [Compound 16]
The IC50 of the first is 1.7-fold higher: 970 nM for the first, 580 nM for the second. The second is the more potent here.

N[C@@H](Cc1cccs1)C(=O)N1CCN(c2nc3ccc(-c4ccc(C(F)(F)F)cc4)cc3s2)CC1 [Compound 14, (S)-2-amino-3-(thiophen-2-yl)-1-(4-(6-(4-(trifluoromethyl)phenyl)benzo[d]thiazol-2-yl)piperazin-1-yl)propan-1-one] and Cc1ccc(-c2ccc3nc(N4CCN(C(=O)[C@@H](N)Cc5cccs5)CC4)sc3c2)cc1 [Compound 8] are within 1.5-fold of each other in IC50: 1300 nM for the first, 1100 nM for the second.

Compared with CC[C@H](N)C(=O)NCCNc1nc2ccc(OC)cc2s1 [Compound 43, (S)-2-amino-N-(2-(6-methoxybenzo[d]thiazol-2-ylamino)ethyl)butanamide hydrochloride], CC[C@H](N)C(=O)NCCNc1nc2ccccc2s1 [Compound 41, (S)-2-amino-N-(2-(benzo[d]thiazol-2-ylamino)ethyl)butanamide hydrochloride] is 1.5-fold higher in IC50: 12000 nM for the first, 18000 nM for the second.

First: CCOc1ccc(NC(=O)c2ccc3nc(N4CCN(C(=O)[C@@H](N)Cc5cccs5)CC4)sc3c2)cc1 [Compound 28]
Second: N[C@@H](Cc1cccs1)C(=O)N1CCN(c2nc3ccc(C(=O)Nc4ccc(F)cc4)cc3s2)CC1 [Compound 20]
The IC50 of the first is 2.1-fold higher: 1200 nM for the first, 560 nM for the second.

CC[C@H](N)C(=O)N1CCN(c2nc3ccc(C(=O)Nc4ccc(OC)c(OC)c4)cc3s2)CC1 [Compound 4, (S)-2-(4-(2-aminobutanoyl)piperazin-1-yl)-N-(3,4-dimethoxyphenyl)benzo[d]thiazole-6-carboxamide hydrochloride] and COc1ccc(NC(=O)c2ccc3nc(N4CCN(C(=O)[C@@H](N)Cc5ccco5)CC4)sc3c2)cc1OC [Compound 6] are within 1.5-fold of each other in IC50: 3000 nM for the first, 2100 nM for the second.

Compared with N[C@@H](Cc1cccs1)C(=O)N1CCN(c2nc3ccc(Br)cc3s2)CC1 [Compound 5], N[C@@H](Cc1cccs1)C(=O)N1CCN(c2nc3ccc(CO)cc3s2)CC1 [Compound 18, (S)-2-amino-1-(4-(6-(hydroxymethyl)benzo[d]thiazol-2-yl)piperazin-1-yl)-3-(thiophen-2-yl)propan-1-one] is 1.7-fold lower in IC50: 1300 nM for the first, 760 nM for the second. The second is the more potent here.

First: COc1cccc(CNC(=O)c2ccc3nc(N4CCN(C(=O)[C@@H](N)Cc5cccs5)CC4)sc3c2)c1 [Compound 31]
Second: CCCNC(=O)c1ccc2nc(N3CCN(C(=O)[C@@H](N)Cc4cccs4)CC3)sc2c1 [Compound 29]
The IC50 of the first is 1.8-fold lower: 1200 nM for the first, 2100 nM for the second. The first is the more potent here.

N[C@@H](Cc1cccs1)C(=O)NCCNc1nc2ccccc2o1 [Compound 47] and N[C@@H](Cc1cccs1)C(=O)NCCNc1nc2ccccc2s1 [Compound 46, (S)-2-amino-N-(2-(benzo[d]thiazol-2-ylamino)ethyl)-3-(thiophen-2-yl)propanamide hydrochloride] are within 1.5-fold of each other in IC50: 700 nM for the first, 740 nM for the second.

Compared with CN(C)C(=O)c1ccc2nc(N3CCN(C(=O)[C@@H](N)Cc4cccs4)CC3)sc2c1 [Compound 27], N[C@@H](Cc1cccs1)C(=O)N1CCN(c2nc3ccc(C(=O)O)cc3s2)CC1 [Compound 26] is 4.4-fold higher in IC50: 2200 nM for the first, 9600 nM for the second. The first is the more potent here.

Compared with N[C@@H](Cc1cccs1)C(=O)N1CCN(c2nc3ccc(C(=O)NC4CCCC4)cc3s2)CC1 [Compound 19, (S)-2-(4-(2-amino-3-(thiophen-2-yl)propanoyl)piperazin-1-yl)-N-cyclopentylbenzo[d]thiazole-6-carboxamide], N[C@@H](Cc1cccs1)C(=O)N1CCN(c2nc3ccc(C(=O)NC4CCCCC4)cc3s2)CC1 [Compound 30] is 2.6-fold higher in IC50: 870 nM for the first, 2300 nM for the second. The first is the more potent here.

First: N[C@@H](Cc1cccs1)C(=O)N1CCN(c2nc3ccc(CNC4CCCC4)cc3s2)CC1 [Compound 21, (S)-2-amino-1-(4-(6-((cyclopentylamino)methyl)benzo[d]thiazol-2-yl)piperazin-1-yl)-3-(thiophen-2-yl)propan-1-one]
Second: N[C@@H](Cc1cccs1)C(=O)N1CCN(c2nc3ccccc3s2)CC1 [Compound 1]
The IC50 of the first is 6.7-fold lower: 520 nM for the first, 3500 nM for the second.

COc1ccc(NC(=O)c2ccc3nc(NCCN(C)C(=O)[C@@H](N)Cc4cccs4)sc3c2)cc1OC [Compound 48, (S)-2-(2-(2-amino-N-methyl-3-(thiophen-2-yl)propanamido)ethylamino)-N-(3,4-dimethoxyphenyl)benzo[d]thiazole-6-carboxamide] and COc1ccc(NC(=O)c2ccc3nc(N4CCN(C(=O)[C@@H](N)Cc5cccs5)CC4)sc3c2)cc1OC [Compound 3, (S)-2-(4-(2-amino-3-(thiophen-2-yl)propanoyl)piperazin-1-yl)-N-(3,4-dimethoxyphenyl)benzo[d]thiazole-6-carboxamide hydrochloride] are within 1.5-fold of each other in IC50: 200 nM for the first, 170 nM for the second.

First: C#CC[C@H](N)C(=O)NCCNc1nc2ccccc2o1 [Compound 44, (S)-2-amino-N-(2-(benzo[d]oxazol-2-ylamino)ethyl)pent-4-ynamide hydrochloride]
Second: CC[C@H](N)C(=O)NCCNc1nc2ccccc2o1 [Compound 45]
The IC50 of the first is 2.6-fold lower: 3100 nM for the first, ~8000 nM for the second.

First: N[C@@H](Cc1cccs1)C(=O)N1CCN(c2nc3ccc(-c4ccc(O)cc4)cc3s2)CC1 [Compound 15]
Second: N[C@@H](Cc1cccs1)C(=O)N1CCN(c2nc3ccc(-c4cccnc4)cc3s2)CC1 [Compound 13]
The IC50 of the first is 1.7-fold lower: 220 nM for the first, 370 nM for the second.

Compared with N[C@@H](Cc1cccs1)C(=O)N1CCN(c2nc3ccccc3o2)CC1 [Compound 2, (S)-2-amino-1-(4-(benzo[d]oxazol-2-yl)piperazin-1-yl)-3-(thiophen-2-yl)propan-1-one hydrochloride], CCCCNC(=O)c1ccc2nc(N3CCN(C(=O)[C@@H](N)Cc4cccs4)CC3)sc2c1 [Compound 24] is 1.7-fold lower in IC50: 1400 nM for the first, 820 nM for the second. The second is the more potent here.

C#CC[C@H](N)C(=O)NCCNc1nc2ccccc2s1 [Compound 42] and COc1ccc(NC(=O)c2ccc3nc(N4CCN(C(=O)[C@@H](N)Cc5ccsc5)CC4)sc3c2)cc1OC [Compound 12] are within 1.5-fold of each other in IC50: 4700 nM for the first, 5600 nM for the second.
